Experiment [1] deals with T1, heparanase (Homo sapiens, UniProt Q9Y251).
T1 sequence (Q9Y251 158-543 limits assumed): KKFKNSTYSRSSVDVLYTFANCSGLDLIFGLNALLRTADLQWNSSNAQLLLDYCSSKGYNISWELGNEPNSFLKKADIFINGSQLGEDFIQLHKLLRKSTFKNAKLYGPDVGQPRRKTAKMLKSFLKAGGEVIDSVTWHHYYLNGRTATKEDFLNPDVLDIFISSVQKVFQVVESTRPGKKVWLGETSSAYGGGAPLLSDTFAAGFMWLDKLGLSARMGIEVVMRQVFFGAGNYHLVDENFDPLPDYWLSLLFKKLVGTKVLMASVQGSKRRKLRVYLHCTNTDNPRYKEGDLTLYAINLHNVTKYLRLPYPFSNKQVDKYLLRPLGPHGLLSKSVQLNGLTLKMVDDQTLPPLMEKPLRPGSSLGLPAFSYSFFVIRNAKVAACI
T1 sequence (Q9Y251 36-109 limits assumed): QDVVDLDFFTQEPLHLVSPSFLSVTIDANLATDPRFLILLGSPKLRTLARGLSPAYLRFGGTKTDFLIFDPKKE
Nature of the experiment: Anti-heparanase activity (fondaparinux degradation / factor Xa chromogenic assay). It counts as biochemical. The procedure: To determine the compounds IC50 values for the heparanase target, we adapted an assay based on the ability of heparanase to degrade fondaparinux (Sanofi patent No. 287 3377 FR), and the capacity of fondaparinux to inhibit factor Xa activity via AT III binding. This assay was carried out on a STA Compact robot (Diagnostica Stago). Briefly, different concentrations of compounds were added to a mixture containing the heparanase enzyme and fondaparinux and after a time-fixed incubation period, AT III, Factor Xa and a chromogenic substrate (CBS 31.39) were sequentially added to the reaction mix. Production of paranitroanilin resulting from the degradation of the chromogenic substrate CBS 31.39 was monitored at 405 nm. Data obtained for the different concentration points were plotted using a four-parameter fit model and IC50 determined.

For experiment [2], the target named is FGF-2 (Homo sapiens, UniProt P09038). The experiment is described as follows: FGF-2/heparin competition assay by SPR (Biacore). It is filed as binding. Particulars: 10 nM FGF-2, biotinylated heparin, Sensorchip C1. The method, then:
(§1) Heparin or low molecular weight heparin (6 kDa) from SIGMA were biotinylated at the reducing end and immobilized on a Biacore sensorchip. Different concentrations of the compounds of the present invention were co-incubated at a fixed concentration of targets: FGF-2, PDGF-β, VEGF-A or SDF-1α for 30 minutes. The mixture was then injected onto the streptavidin control (control reference) and HP surfaces. Only free growth factor (GF) or chemokine, i.e. the target molecules not bound to compounds of the present invention, were trapped on the heparin surface. From the binding of free targets on heparin, the percentages of inhibition were calculated and then reported in function of compound concentrations. The plot was fitted with a four-parameter model and IC50 was calculated. The 0% inhibition value was obtained for the injection of the studied target in running-buffer, and the 100% inhibition value was obtained for the injection of the studied target co-incubated with 10 μM of low molecular weight heparin 6 kDa.
A FGF-2/heparin competition assay using the Biacore technology was performed in the following conditions: 10 nM FGF-2, biotinylated heparin, Reference Streptavidin, Sensorchip C1, PBS-T 0.02%, Regeneration NaCl 2M
(§2) IC50 values of compounds of the present invention were determined using the Biacore technology for the growth factor and chemokine/heparin competition assays that contained the following proteins: VEGF-A, SDF-1α, FGF-2 and PDGF-β.

Experiment [3] has as its target SDF-1α (Homo sapiens, UniProt P48061). Nature of the experiment: SDF-1α/heparin competition assay by SPR (Biacore). It is filed as binding. Particulars: 96 nM SDF-1α, biotinylated low molecular weight heparin (6 kDa), Sensorchip SA. The procedure: as §1
A SDF-1α/heparin competition assay using the Biacore technology was performed using the following conditions: 96 nM SDF-1α, biotinylated low molecular weight heparin (6 kDa), Reference Streptavidin, Sensorchip SA, HBS-P, Regeneration NaCl 2M
as §2

The subject of experiment [4] is control and VEGF-A-stimulated angiogenesis (endothelial tubules, HUVEC/NHDF co-culture). The experiment is described as follows: In vitro angiogenesis assay (endothelial tubule formation, AngioKit). It is filed as cell-based, human. Particulars: 30 μM compound; anti-CD31 ELISA and AngioSys image analysis; FIGS. 13-15. From the text:
These experiments are also known as endothelial tubule formation assays and they are used to evaluate the compound effects on in vitro angiogenesis (the neo-formation of blood vessels from pre-existing ones). This process is critical in tumour development as bloodstream brings all the necessary nutrients and oxygen to cancer cells.
The assay uses a commercially available product (AngioKit) specially designed for screening experiments. The product consists of a 24 or 96-well culture plate containing endothelial and fibroblast cells. A similar assay has been developed “in-house” using 48-well culture plates.
Endothelial cells will, on a ten-day period, develop into a branched network of endothelial tubules or “primitive” blood vessels. This process requires a co-culture with fibroblasts, these latter cells secreting essential growth factors for endothelial cells. At the end of the incubation period (about ten days), angiogenesis is monitored both by ELISA and image analysis software quantifying different blood vessel parameters (number and average length of tubules, field area, number of junctions for example). All reagents and material (except the oligosaccharide compounds, the VEGF-A and the 48-well plate AngioKits) are bought from TCS CellWorks (http://www.tcscellworks.co.uk) which provides: • 24 and 96-well plate AngioKits (including culture medium) • Anti-CD31 (a cell marker specifically expressed on endothelial cells) reagents for ELISA and tubule staining procedures. • AngioSys image analysis software
For home-made 48-well plate AngioKits, NHDF and HUVEC cells were independently purchased while TCS CellWorks culture medium and protocol were used.
The cell medium is replaced with fresh one (day 1) and cells are incubated at 37° C. with the compounds of interest (oligosaccharides and/or angiogenic proteins, such as growth factors). During the course of the experiment, the culture medium (including oligosaccharides and/or angiogenic proteins) is replaced at days 4 and 7.
At day 10, the assay is terminated by the labelling of endothelial cells by an ELISA procedure (indirect colorimetric titration of the endothelial cell number through dosage of the endothelial-specific CD31 marker) and the staining of endothelial tubules. Photographs of stained tubules are taken and analysed with the AngioSys image analysis software.
In the following assay the effects of compounds 239, 240, 246, 247, 248, 249, 252, 254, 255 and 257 on in vitro angiogenesis were measured (all compounds were added at the 30 μM concentration). […] For the data presented in FIG. 13, AngioSys image analyses are shown on FIG. 14. Photographs of endothelial tubules are shown on the side of the anti-CD31 ELISA (see FIGS. 13 and 15).

On to `C#CCCCOC1OC(COS(=O)(=O)[O-])C(OC2OC(C(=O)[O-])C(OC3OC(COS(=O)(=O)[O-])C(OC4OC(C(=O)[O-])C(OC5OC(COS(=O)(=O)[O-])C(OC6OC(C(=O)[O-])C(OC7OC(COS(=O)(=O)[O-])C(OC8OC(C(=O)[O-])C(OCc9ccccc9)C(OCc9ccccc9)C8OS(=O)(=O)[O-])C(OCc8ccccc8)C7NS(=O)(=O)[O-])C(OCc7ccccc7)C6OS(=O)(=O)[O-])C(OCc6ccccc6)C5NS(=O)(=O)[O-])C(OCc5ccccc5)C4OS(=O)(=O)[O-])C(OCc4ccccc4)C3NS(=O)(=O)[O-])C(OCc3ccccc3)C2OS(=O)(=O)[O-])C(OCc2ccccc2)C1NS(=O)(=O)[O-].[Na+].[Na+].[Na+].[Na+].[Na+].[Na+].[Na+].[Na+].[Na+].[Na+].[Na+].[Na+].[Na+].[Na+].[Na+].[Na+]` (centres unmarked) [Compound 240], for which the results for the IC50 in experiment [1], in experiment [2] and in experiment [3] were 0.42 nM, 3.6 nM and 23 nM, respectively. Further, the “inhibition of control and/or VEGF-A-stimulated angiogenesis” value in experiment [4] is listed as “inhibition of control and/or VEGF-A-stimulated angiogenesis”.

Turning to `C#CCCCOC1OC(COS(=O)(=O)[O-])C(OC2OC(C(=O)[O-])C(OC3OC(COS(=O)(=O)[O-])C(OC4OC(C(=O)[O-])C(OC5OC(COS(=O)(=O)[O-])C(OC6OC(C(=O)[O-])C(OCc7ccccc7)C(OCc7ccccc7)C6OS(=O)(=O)[O-])C(OCc6ccccc6)C5NS(=O)(=O)[O-])C(OCc5ccccc5)C4OS(=O)(=O)[O-])C(OCc4ccccc4)C3NS(=O)(=O)[O-])C(OCc3ccccc3)C2OS(=O)(=O)[O-])C(OCc2ccccc2)C1NS(=O)(=O)[O-].[Na+].[Na+].[Na+].[Na+].[Na+].[Na+].[Na+].[Na+].[Na+].[Na+].[Na+].[Na+]` (centres unmarked) [Compound 239], the IC50 in experiment [1] turned out to be 9.2 nM; in experiment [2], 4.5 nM; in experiment [3], 43 nM. In addition, the “inhibition of control and/or VEGF-A-stimulated angiogenesis” value in experiment [4] is given as “inhibition of control and/or VEGF-A-stimulated angiogenesis”.

For the origin of these results see patent US20110166078A1, “OLIGOSACCHARIDE COMPOUNDS FOR USE IN MOBILISING STEM CELLS” (ENDOTIS PHARMA, priority 2008, published 2011).
